Key:
iNOS = assay: Cytokine-induced iNOS protein in islets from siRNA-injected mice (immunoblot); assay type: cell-based, mouse; settings: cytokines 4 h
Procedure: Because nitric oxide is known to be a primary effector of islet dysfunction in response to cytokine-induced stress, the transcription of the gene encoding iNOS (Nos2) was also examined.
Cytokine and inhibitor incubation studies: For cytokine incubation assays, a 1000× cocktail of cytokines containing 5 μg/ml IL1β, 10 μg/ml TNFα, and 100 μg/ml IFNγ (all prepared in 0.1% BSA in Tris-buffered saline) was applied at 1× final concentration to groups of 50 islets or 1×10^6 INS-1 (832/13) cells for a total of 4 h at 37° C. […]
Immunoblot and nitrite and iNOS assays: Whole cell extracts were resolved by electrophoresis on a 4-20% SDS-polyacrylamide gel, followed by immunoblot using anti-eIF5A1, anti-eIF5A2, anti-iNOS, anti-GFP, or anti-actin primary antibodies and fluorophore-labeled secondary antibodies. Immunoblots were visualized using the Li-Cor® Odyssey® system (Li-Cor Biosciences) and quantitated by scanning fluorometry using Odyssey Imaging v. […] Nitrite was quantitated by measuring nitric oxide-derived nitrite from INS-1 cell culture medium using the Griess reagent (Promega) according to the manufacturer's recommendations. iNOS activity was measured using a commercially available kit (Cayman).

[1] = tested on: LPS-treated NOD/Scid-(IL-2Rγ-null) mice; assay: LPS injection model in NOD/Scid-(IL-2Rγ-null) mice; assay type: in vivo, mouse; settings: GC7 4 mg/kg/day i.p.
Procedure: Because systemic GC7 delivery would be expected to inhibit hypusination in all cells that express DHS, it is unclear if the islet protection afforded by GC7 in vivo is a result of its effects in the islet, the immune cells, or both. In order to clarify this, the IL-1 responses in STZ-treated C57BL/6J animals were assessed by measuring levels of the IL-1-responsive cytokine IL-6. […] No alterations in serum levels of IL13 and Rantes/CCL5 were observed between treatment groups (FIG. 10F). […] To address the role of immune cells more directly, a mouse model was generated to test the role of hypusination in the islet inflammatory response independently of the immune system. Lipopolysaccharide (LPS) is an agent that evokes the NFkB response through activation of the toll-like receptor 4 (TLR4) (48), which is also expressed in pancreatic islets (49). […]
GSIS and IPGTT studies: For GSIS studies using isolated islets, approximately 50 islets or 1×10^6 INS-1 cells per condition were washed and incubated in Krebs-Ringer HEPES-buffered (KRB) solution for one hour at 37° C., and then placed in KRB solution containing 3 mM or 11 mM glucose for one hour. […] Blood glucose was measured from samples taken from the tail vein before intraperitoneal injection of 1 g glucose per kg mouse weight, and at 10, 20, 30, 60, 90, 120, and 180 minutes after glucose administration using an A1phaTrak® glucometer (Abbott). […]

Nos2 mRNA = assay: Nuclear export of Nos2 mRNA, subcellular fractionation of cytokine-treated INS-1 cells; assay type: cell-based, rat; settings: cytokine-treated; GC7 100 μM overnight or leptomycin B 20 ng/ml 3 h
Procedure: Subcellular fractionation studies: Nuclear and cytoplasmic fractions of 1×10^6 cytokine-treated INS-1 cells exposed to vehicle, leptomycin B (20 ng/ml), or GC7 (100 μM) were prepared using the method of Dignam, et al. (76). Total RNA was isolated from nuclear and cytoplasmic fractions using the RNeasy® RNA isolation kit (Qiagen).
Quantitative RT-PCR: Five micrograms of total RNA from islets or INS-1 cells were reverse-transcribed as detailed previously (77). cDNA was subjected to quantitative PCR using SYBR Green-based technology and published primers for mouse Ins1/2 pre-mRNA (78) and QuantiTech® primers (Qiagen) for all other mouse genes. The Assay on Demand® kit (Applied Biosystems) was used to amplify rat genes in INS-1 cells and human genes in human islets. Thermal cycling was performed according to manufacturer's instructions, and the identity of each PCR product was verified by automated sequencing. All samples were corrected for total input RNA as quantitated by an Experion® (Bio-Rad) bioanalyzer. All data represent the average of triplicate determinations from at least 3 independent experiments.

Compound	induction of iNOS protein in islets (iNOS)	glucose intolerance in IPGTT 3 days after LPS ([1]; LPS 20 mg/kg single injection)	iNOS staining intensity in islets ([1]; LPS 20 mg/kg)	distribution of mRNAs between nuclear and cytoplasmic fractions (Nos2 mRNA)
5′-AACGGAAUGACUUCCAGCUGA-3′ (siSTABLE modification, further chemistry not given here) [si-eIF5A]	significantly attenuated	–	–	–
NCCCCCCCN=C(N)N [GC7]	–	no evidence of glucose intolerance	increased iNOS staining intensity in islets of vehicle-treated animals, but not in GC7-treated animals	relative nuclear retention of Nos2 mRNA
